This note sets out measurements from PubChem BioAssay (NCI).

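Following 48 hours of exposure in 96-well plates, responses at five concentrations were used to interpolate endpoints linearly. At the GI50, growth is halved. TGI: concentration producing complete growth inhibition.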

Holding throughout (assay): NCI tumour cell line growth inhibition, 48 h
Assay [1] relates to CCRF-CEM leukemia.
The subject of assay [2] is SNB-75 CNS.
Assay [3] concerns UO-31 renal.
Assay [4] concerns K-562 leukemia.
Assay [5] has as its system MOLT-4 leukemia.
In assay [6] the test system is KM12 colon.
Assay [7] deals with NCI-H460 lung.
In assay [8] the test system is DU-145 prostate.
Assay [9] deals with OVCAR-8 ovarian.
In assay [10] the test system is NCI-H226 lung.

`COc1ccc2c(c1)CCc1[nH]nc(-c3cc(OC)c(OC)c(OC)c3)c1-2`: the GI50 in [1], in assay [2], in assay [3], in assay [4], in [5] and in assay [6] was < 0.01 µM each time. Further, the GI50 in assay [7], in assay [8] and in [9] was < 0.01 µM in each case. Moreover, the TGI in [1] was > 100 µM; in assay [2], 26.1 µM; in assay [3], 17.3 µM; in [4], > 100 µM; in assay [5], > 100 µM; in assay [6], 11.8 µM. Further, the TGI in assay [7] is 2.06 µM; in assay [8] it was > 100 µM; in [9], 15.4 µM.

Take `O=C(O)c1ccc([S-])cc1.[Au+].c1ccc(CN2[CH-]N(Cc3ccccc3)C(c3ccccc3)=C2c2ccccc2)cc1`: the GI50 in [1] was 0.356 µM; in assay [2], 0.298 µM; in assay [3] it was 0.311 µM; in assay [4], 0.33 µM; in assay [6], 0.513 µM; in assay [7], 0.328 µM. Further, the figures for the GI50 in assay [8] and in assay [9] were 0.526 µM and 0.417 µM, respectively. In addition, the TGI in assay [1] is 2.72 µM; in assay [2] it was 1.51 µM; in assay [3], 1.27 µM; in assay [4], 1.67 µM; in assay [6] it was 1.82 µM; in [7], 1.28 µM. Moreover, the TGI in assay [8] was found to be 1.74 µM; in assay [9], 1.66 µM.

Consider `COc1c2c(c(CC=C(C)C)c3oc(=O)c(-c4ccc(O)cc4)c(O)c13)OC(C)(C)C=C2`, for which the TGI in assay [1] was 76.8 µM; in [3], > 100 µM; in assay [4], > 100 µM; in assay [5], 91 µM; in assay [6] it was 35 µM; in assay [7] it was 68.4 µM. For the same molecule, the TGI in assay [10] was 62 µM; in assay [8], > 100 µM; in assay [9], > 100 µM.

Regarding `C/C(CC(=O)Nc1ccc(Cl)cc1)=N\NC(=O)C[n+]1ccccc1`, the TGI in assay [1], in [2], in assay [3], in [4], in assay [5] and in [6] was > 100 µM in each case. Further, the TGI in assay [7], in [10] and in assay [9] was > 100 µM in each case.

As to `COc1ccc2nc(NCN3C(=O)c4ccccc4C3=O)sc2c1`, the TGI in [1], in [2], in assay [3], in assay [4], in assay [5] and in assay [6] was > 100 µM each time. Moreover, the TGI in [7], in [8] and in assay [9] was > 100 µM each time.

As to `CSc1nc(SC)c2c(C(N)=S)[nH]nc2n1`, the TGI in [1] was 69.5 µM; in assay [2], 76.5 µM; in [3], 49.6 µM; in [4], 78.9 µM; in assay [5] it was 99.3 µM; in [6], > 100 µM. The TGI in [7] is 64.8 µM; in assay [10], 62.6 µM; in [9], > 100 µM.

Take `COc1cc(C=O)c(-c2cc3c(cc2C2(C)OCCS2)OCO3)c(OC)c1OC` (centres undefined): the TGI was > 160 µM in assay [1]; 21.3 µM in assay [2]; 64.2 µM in assay [3]; > 239 µM in [4]; > 239 µM in [5]; 34 µM in assay [6]. Besides, the TGI in assay [7] is > 75.6 µM; in assay [10] it was 29.5 µM; in assay [9], > 75.1 µM.

In the case of `CN1CCN(C(=O)c2c(NC(=O)NS(=O)(=O)c3ccccc3)sc3c2CCCCC3)CC1`, the GI50 was 32.8 µM in assay [1]; > 100 µM in assay [3]; 33.6 µM in assay [4]; > 100 µM in [5]; 29.3 µM in assay [6]; 51 µM in assay [7]. For the same molecule, the results for the GI50 in assay [10], in assay [8] and in assay [9] were 33.1 µM, 41 µM and 53.5 µM, respectively. For the same molecule, the TGI in [1] is > 100 µM; in assay [3], > 100 µM; in [4], > 100 µM; in [5] it was > 100 µM; in assay [6], 80.1 µM; in assay [7], > 100 µM. The TGI in assay [10], in assay [8] and in assay [9] was > 100 µM in each case.

Turning to `Nc1nc(NC2C=C(CO)C(O)C2O)c([N+](=O)[O-])c(=O)[nH]1` (centres undefined), the TGI in assay [1], in assay [2], in [3], in [4], in assay [5] and in [6] was > 100 µM each time. Further, the TGI in assay [7], in [10] and in [9] was > 100 µM each time.

Turning to `CC(C)(O)[C@@H]1CC[C@@]2(C)CCC[C@H](O)[C@H]2C1`, the TGI in assay [1], in [2], in assay [3], in [4], in assay [5] and in assay [6] was > 100 µM each time. The TGI in assay [7], in assay [10] and in assay [9] was > 100 µM in each case.

Consider `COc1ccc(C2=Nc3c/c(=C\c4c(O)[nH]c5ccc(Cl)cc45)ccc3=N2)cc1`, for which the GI50 was 1.97 µM in [1]; 1.46 µM in [3]; 1 µM in assay [4]; 1.99 µM in assay [5]; 1.22 µM in [6]; 13.8 µM in assay [10]. Also, the results for the GI50 in assay [8] and in [9] were 1.63 µM and 2.05 µM, respectively. Moreover, the TGI in [1] amounted to 5.52 µM; in [3], 3.46 µM; in assay [4], 6.29 µM; in assay [5], 6.08 µM; in [6], 2.65 µM; in assay [10] it was 37 µM. Besides, the results for the TGI in assay [8] and in [9] were 3.17 µM and 4.7 µM, respectively.

`O=C(NC12CC3CC(CC(C3)C1)C2)C(=O)c1c[nH]c2ccc([N+](=O)[O-])cc12`: the TGI is > 100 µM in [1]; 52.8 µM in assay [2]; > 100 µM in assay [3]; > 100 µM in assay [4]; > 100 µM in assay [5]; > 100 µM in assay [6]. For the same molecule, the TGI in assay [7] was > 72.3 µM; in [10], 63.6 µM; in assay [9] it was > 100 µM.

Take `COc1cc2cc3c4c(cc(OC)c(OC)c4c2cc1OC)CCN3C(=O)N(C)C`: the TGI in assay [1], in assay [2], in assay [3], in [4], in assay [5] and in assay [6] was > 100 µM in each case. Moreover, the TGI in [7], in assay [10] and in [9] was > 100 µM each time.

On to `N#Cc1ccc(C2C3=C(CCCC3=O)OC3=C2C(=O)c2ccccc2C3=O)cc1` (centres undefined), for which the GI50 was 0.951 µM in [1]; 1.35 µM in assay [2]; 1.67 µM in [3]; 1.63 µM in [5]; 3.14 µM in assay [6]; 3.64 µM in [7]. The GI50 in assay [10] is 2.02 µM; in assay [8], 1.67 µM; in assay [9] it was 0.722 µM. Moreover, the TGI was > 100 µM in [1]; 2.65 µM in [2]; 3.14 µM in assay [3]; 5.53 µM in assay [5]; 12.9 µM in assay [6]; 13.3 µM in assay [7]. The values for the TGI in assay [10], in assay [8] and in [9] were 4.62 µM, 3.07 µM and 4.79 µM, respectively.

For the molecule `Clc1ccc(C(c2ccc(Cl)cc2)N2CCNCC2)cc1`, the TGI in assay [1] was 15.3 µM; in [2] it was 5.78 µM; in assay [3], 4.4 µM; in assay [4] it was 3.76 µM; in assay [5], 5 µM; in assay [6], 3.63 µM. In addition, the TGI in assay [7] is 4.65 µM; in assay [8], 7.07 µM; in assay [9], 3.28 µM.

Take `COC(=O)c1ccc(NC(=O)c2cc(OC)c(OC)c(OC)c2)cc1`: the TGI is > 100 µM in assay [1]; > 100 µM in [2]; 66.9 µM in assay [3]; 12 µM in assay [4]; > 100 µM in [5]; > 100 µM in assay [6]. Moreover, the TGI in [7] was > 100 µM; in assay [10] it was > 85.4 µM; in [9] it was > 100 µM.

In the case of `CCC(=O)C(C)C(=O)C(=O)C(=O)OC` (centres undefined), the TGI in [1] is > 69.1 µM; in assay [2], > 100 µM; in assay [3], > 100 µM; in [4] it was > 100 µM; in assay [5], > 91.5 µM; in assay [6] it was > 100 µM. Also, the TGI in [7], in assay [10] and in assay [9] was > 100 µM each time.
